# Experimental data as given in patent publication US8455475B2 (Gruenenthal GmbH, priority 2009, dated 2013).
# Target: T1, rat B1R (bradykinin receptor 1) (Rattus norvegicus, UniProt P97583)
# T1 construct: expressed in transfected cells; host or cells: CHO K1 cells
# T1 sequence (P97583 1-337): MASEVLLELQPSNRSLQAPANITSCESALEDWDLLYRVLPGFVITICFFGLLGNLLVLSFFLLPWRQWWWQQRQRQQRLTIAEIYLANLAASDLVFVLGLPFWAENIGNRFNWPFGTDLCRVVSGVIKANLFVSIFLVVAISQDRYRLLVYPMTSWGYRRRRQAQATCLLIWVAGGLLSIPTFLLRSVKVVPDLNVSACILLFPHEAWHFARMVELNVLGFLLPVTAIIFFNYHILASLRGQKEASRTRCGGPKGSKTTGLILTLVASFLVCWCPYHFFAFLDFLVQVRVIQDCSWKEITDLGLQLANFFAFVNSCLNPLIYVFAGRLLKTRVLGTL
# Test: FLIPR Ca2+ assay (Fluo-4) on CHO K1 cells stably transfected with the B1R gene of the rat (rB1R cells): % inhibition at 10 μM / IC50, agonist Des-Arg9-bradykinin
# Format: cell-based
# Conditions: CHO-K1, rat B1R
# Summary of the method: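 Cells were Fluo-4-loaded, then test compound (10 μM, or a concentration series for IC50) was preincubated 10–20 min before agonist challenge at EC80: Lys-Des-Arg9-bradykinin for hB1R, Des-Arg9-bradykinin for rB1R. Peak Ca2+ fluorescence (ex 488/em 540 nm) gave % inhibition versus maximal achievable inhibition.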
row,Compound,inhibition at 10 µM
1,"CC(C)(C)CC(=O)N1CCC2(CC1)CCN(C(=O)c1ccc3c(c1)C(NC(=O)c1ccccc1Cl)CC3)CC2 (centres unmarked) [IND_CC-598, 2-Chloro-N-[6-[9-(3,3-dimethyl-butanoyl)-3,9-diazaspiro[5.5]undecane-3-carbonyl]-2,3-dihydro-1H-inden-1-yl]-benzamide]",96%
2,"O=C(NC1CCc2ccc(C(=O)N3CCC4(CC3)CCN(C(=O)c3ccc(F)cc3Cl)CC4)cc21)c1ccccc1Cl (centres unmarked) [IND_CC-599, 2-Chloro-N-[6-[9-(2-chloro-4-fluoro-benzoyl)-3,9-diazaspiro[5.5]undecane-3-carbonyl]-2,3-dihydro-1H-inden-1-yl]-benzamide]",96%
3,"Cc1cc(C(=O)N2CCC3(CCN(C(=O)c4ccc5c(c4)C(NC(=O)c4ccccc4Cl)CC5)CC3)CC2)n(C(C)(C)C)n1 (centres unmarked) [IND_CC-602, N-[6-[9-(2-tert-Butyl-5-methyl-2H-pyrazole-3-carbonyl)-3,9-diazaspiro-[5.5]undecane-3-carbonyl]-2,3-dihydro-1H-inden-1-yl]-2-chloro-benzamide]",95%
4,"Cn1nc(C(C)(C)C)cc1C(=O)N1CCC2(CCN(C(=O)c3ccc4c(c3)C(N(C(=O)c3ccccc3Cl)C3CC3)CC4)C2)CC1 (centres unmarked) [IND_CC-607, N-[6-[8-(5-tert-Butyl-2-methyl-2H-pyrazole-3-carbonyl)-2,8-diazaspiro[4.5]decane-2-carbonyl]-2,3-dihydro-1H-inden-1-yl]-2-chloro-N-cyclopropyl-benzamide]",67%
5,"O=C(NC1CCc2ccc(C(=O)N3CCC4(CC3)CCN(S(=O)(=O)c3ccc(Cl)s3)CC4)cc21)c1ccccc1Cl (centres unmarked) [IND_CC-608, 2-Chloro-N-[6-[9-[(5-chloro-thiophen-2-yl)sulfonyl]-3,9-diazaspiro[5.5]undecane-3-carbonyl]-2,3-dihydro-1H-inden-1-yl]-benzamide]",102%
6,"N#Cc1ccccc1S(=O)(=O)N1CCC2(CCN(C(=O)c3ccc4c(c3)C(NC(=O)c3ccccc3Cl)CC4)CC2)CC1 (centres unmarked) [IND_CC-611, 2-Chloro-N-[6-[9-[(2-cyano-phenyl)sulfonyl]-3,9-diazaspiro[5.5]undecane-3-carbonyl]-2,3-dihydro-1H-inden-1-yl]-benzamide]",98%
7,"Cn1ccc2c(S(=O)(=O)N3CCC4(CCN(C(=O)c5ccc6c(c5)C(NC(=O)c5ccccc5Cl)CC6)CC4)CC3)cccc21 (centres unmarked) [IND_CC-612, 2-Chloro-N-[6-[9-[(1-methyl-1H-indol-4-yl)sulfonyl]-3,9-diazaspiro[5.5]undecane-3-carbonyl]-2,3-dihydro-1H-inden-1-yl]-benzamide]",65%
8,"CC(C)S(=O)(=O)N1CCC2(CCN(C(=O)c3ccc4c(c3)C(NC(=O)c3ccccc3Cl)CC4)CC2)CC1 (centres unmarked) [IND_CC-613, 2-Chloro-N-[6-[9-(isopropylsulfonyl)-3,9-diazaspiro[5.5]undecane-3-carbonyl]-2,3-dihydro-1H-inden-1-yl]-benzamide]",102%

# Continued, values first:
row,inhibition at 10 µM,Compound
1,91%,"CSc1ncccc1C(=O)N1CCC2(CCN(C(=O)c3ccc4c(c3)C(NC(=O)c3ccccc3Cl)CC4)CC2)CC1 (centres unmarked) [IND_CC-595, 2-Chloro-N-[6-[9-(2-methylsulfanyl-pyridine-3-carbonyl)-3,9-diazaspiro[5.5]undecane-3-carbonyl]-2,3-dihydro-1H-inden-1-yl]-benzamide]"
2,94%,"N#Cc1ccc(C(=O)N2CCC3(CC2)CCN(C(=O)c2ccc4c(c2)C(NC(=O)c2ccccc2Cl)CC4)CC3)cc1 (centres unmarked) [IND_CC-596, 2-Chloro-N-[6-[9-(4-cyano-benzoyl)-3,9-diazaspiro[5.5]undecane-3-carbonyl]-2,3-dihydro-1H-inden-1-yl]-benzamide]"
3,101%,"O=C(NC1CCc2ccc(C(=O)N3CCC4(CC3)CCN(C(=O)C3CC3)CC4)cc21)c1ccccc1Cl (centres unmarked) [IND_CC-597, 2-Chloro-N-[6-[9-(cyclopropanecarbonyl)-3,9-diazaspiro[5.5]undecane-3-carbonyl]-2,3-dihydro-1H-inden-1-yl]-benzamide]"
4,100%,"O=C(NC1CCc2ccc(C(=O)N3CCC4(CC3)CCN(C(=O)c3ccc(F)cc3F)CC4)cc21)c1ccccc1Cl (centres unmarked) [IND_CC-600, 2-Chloro-N-[6-[9-(2,4-difluoro-benzoyl)-3,9-diazaspiro[5.5]undecane-3-carbonyl]-2,3-dihydro-1H-inden-1-yl]-benzamide]"
5,77%,"Cn1nc(C(C)(C)C)cc1C(=O)N1CCC2(CCN(C(=O)c3ccc4c(c3)C(NC(=O)c3ccccc3Cl)CC4)CC2)CC1 (centres unmarked) [IND_CC-601, N-[6-[9-(5-tert-Butyl-2-methyl-2H-pyrazole-3-carbonyl)-3,9-diazaspiro-[5.5]undecane-3-carbonyl]-2,3-dihydro-1H-inden-1-yl]-2-chloro-benzamide]"
6,75%,"O=C(c1ccc2c(c1)C(N(C(=O)c1ccccc1Cl)C1CC1)CC2)N1CCC2(CCN(C(=O)C3CC3)CC2)C1 (centres unmarked) [IND_CC-603, 2-Chloro-N-[6-[8-(cyclopropanecarbonyl)-2,8-diazaspiro[4.5]decane-2-carbonyl]-2,3-dihydro-1H-inden-1-yl]-N-cyclopropyl-benzamide]"
7,94%,"CC(C)(C)CC(=O)N1CCC2(CC1)CCN(C(=O)c1ccc3c(c1)C(N(C(=O)c1ccccc1Cl)C1CC1)CC3)C2 (centres unmarked) [IND_CC-604, 2-Chloro-N-cyclopropyl-N-[6-[8-(3,3-dimethyl-butanoyl)-2,8-diazaspiro[4.5]decane-2-carbonyl]-2,3-dihydro-1H-inden-1-yl]-benzamide]"
8,66%,"O=C(c1ccc2c(c1)C(N(C(=O)c1ccccc1Cl)C1CC1)CC2)N1CCC2(CCN(C(=O)c3ccc(F)cc3Cl)CC2)C1 (centres unmarked) [IND_CC-605, 2-Chloro-N-[6-[8-(2-chloro-4-fluoro-benzoyl)-2,8-diazaspiro[4.5]decane-2-carbonyl]-2,3-dihydro-1H-inden-1-yl]-N-cyclopropyl-benzamide]"
9,66%,"O=C(c1ccc2c(c1)C(N(C(=O)c1ccccc1Cl)C1CC1)CC2)N1CCC2(CCN(C(=O)c3ccc(F)cc3F)CC2)C1 (centres unmarked) [IND_CC-606, 2-Chloro-N-cyclopropyl-N-[6-[8-(2,4-difluoro-benzoyl)-2,8-diazaspiro[4.5]decane-2-carbonyl]-2,3-dihydro-1H-inden-1-yl]-benzamide]"
10,101%,"O=C(NC1CCc2ccc(C(=O)N3CCC4(CC3)CCN(S(=O)(=O)c3ccc(F)cc3F)CC4)cc21)c1ccccc1Cl (centres unmarked) [IND_CC-609, 2-Chloro-N-[6-[9-[(2,4-difluoro-phenyl)sulfonyl]-3,9-diazaspiro[5.5]undecane-3-carbonyl]-2,3-dihydro-1H-inden-1-yl]-benzamide]"
11,103%,"N#Cc1cc(S(=O)(=O)N2CCC3(CCN(C(=O)c4ccc5c(c4)C(NC(=O)c4ccccc4Cl)CC5)CC3)CC2)ccc1F (centres unmarked) [IND_CC-610, 2-Chloro-N-[6-[9-[(3-cyano-4-fluoro-phenyl)sulfonyl]-3,9-diazaspiro[5.5]undecane-3-carbonyl]-2,3-dihydro-1H-inden-1-yl]-benzamide]"
12,67%,"Cn1ccc2cc(S(=O)(=O)N3CCC4(CCN(C(=O)c5ccc6c(c5)C(NC(=O)c5ccccc5Cl)CC6)CC4)CC3)ccc21 (centres unmarked) [IND_CC-614, 2-Chloro-N-[6-[9-[(1-methyl-1H-indol-5-yl)sulfonyl]-3,9-diazaspiro[5.5]undecane-3-carbonyl]-2,3-dihydro-1H-inden-1-yl]-benzamide]"
